Patent US12396459B2, “Synergistically effective herbicide composition comprising pyridate and at least one defined 4-HPPD inhibitor” (BELCHIM CROP PROTECTION NV, priority 2018, dated 2025)
Read-outs that look alike come from different tables or passages of the source.

Columns and labels:
Format in all cases: in vivo
Poa annua = experiment: Field trial post-emergence in maize: POAAN; settings: for herbicidal effect (h.e.): g a.c./ha: PYR 300, MES 100, PYR + MES 300 + 90
Description: (§1) Herbicidal activity of herbicide compositions according to the first aspect of the present invention with regard to different types of unwanted vegetation was determined during trials performed on test fields (field trials). Individual compositions comprising pyridate and individual compositions comprising a defined 4-HPPD inhibitor are compared with a herbicide composition according to the invention comprising both pyridate and a defined 4-HPPD inhibitor. The expected activity of the combination of the active compounds pyridate and a defined 4-HPPD inhibitor is calculated according to above mentioned calculation method by Colby, in order to evaluate a synergistic effect between pyridate and a defined 4-HPPD inhibitor.
(§2) Herbicidal activity was determined by applying herbicide compositions on emerged unwanted vegetation on fields where maize was cultivated. Pyridate and a defined 4-HPPD inhibitor were applied as a tank mixture by mixing these active compounds prior to use in a spray tank. The corresponding mixture was in the form of a spray liquor. Besides, spray liquors of individual compositions comprising pyridate and of individual compositions comprising a defined 4-HPPD inhibitor were used. Test plants of unwanted vegetation with a growth stage corresponding to BBCH 10-18 (according to the extended BBCH-scale) were sprayed with the active compound preparations such that particular desired amounts of active compounds are applied per unit area. Spray liquor was diluted with water to arrive at an application volume of 50 to 450 L/ha. At a specified number of days after application (DAA), the degree of damage to the unwanted vegetation is rated in % of plants of unwanted vegetation that were killed, which was assessed by visually controlling the plants.

Veronica persica = experiment: Field trial post-emergence in maize: VERPE; settings: for herbicidal effect (h.e.): g a.c./ha: PYR 300, MES 100, PYR + MES 300 + 90
Description: as §1, §2

Digitaria sanguinalis = experiment: Examples 6-8 herbicidal effect: DIGSA; settings: 7 DAA
Convolvulus arvensis = experiment: Field trial post-emergence in maize: CONAR
Description: as §1, §2
(§3) Example 1 concerns a herbicide composition comprising a combination of pyridate and mesotrione, which was applied post-emergence on unwanted vegetation on a field where maize was cultivated, according to the test conditions mentioned above.

Rumex obtusifolius = experiment: Field trial post-emergence in maize: RUMOB
Description: as §1, §2, §3

Erodium ciconium = experiment: Field trial post-emergence in maize: EROCC
Description: as §1, §2, §3

Geranium dissectum = experiment: Examples 6-8 herbicidal effect: GERDI; settings: 7 DAA
Solanum nigrum = experiment: Field trial post-emergence in maize: SOLNI; settings: for herbicidal effect (h.e.): g a.c./ha: PYR 300, MES 100, PYR + MES 300 + 90
Description: as §1, §2

Matricaria chamomilla = experiment: Examples 6-8 herbicidal effect: MATCH; settings: 7 DAA
Mercurialis annua = experiment: Field trial post-emergence in maize: MERAN
Description: as §1, §2, §3

Capsella bursa-pastoris = experiment: Field trial post-emergence in maize: CAPBP
Description: as §1, §2

Atriplex patula = experiment: Field trial post-emergence in maize: ATXPA
Description: as §1, §2, §3

Datura stramonium = experiment: Field trial post-emergence in maize: DATST; settings: 7-14 DAA; # = 2; g a.c./ha: PYR 300, MES 100, PYR + MES 300 + 90
Description: as §1
(§4) Herbicidal activity was determined by applying herbicide compositions on emerged unwanted vegetation on fields where maize was cultivated. Pyridate and a defined 4-HPPD inhibitor were applied as a tank mixture by mixing these active compounds prior to use in a spray tank. The corresponding mixture was in the form of a spray liquor. […] At a specified number of days after application (DAA), the degree of damage to the unwanted vegetation is rated in % of plants of unwanted vegetation that were killed, which was assessed by visually controlling the plants.

Hibiscus ternatus = experiment: Field trial post-emergence in maize: HIBTR; settings: 7-14 DAA; # = 2; g a.c./ha: PYR 300, MES 100, PYR + MES 300 + 90
Description: as §1, §4

Stachys arvensis = experiment: Field trial post-emergence in maize: STAAR; settings: 7-14 DAA; # = 1; g a.c./ha: PYR 300, MES 100, PYR + MES 300 + 90
Description: as §1, §4

Brassica napus = experiment: Field trial post-emergence in maize: BRSNN; settings: # = 1, g a.c./ha: PYR 300, MES 100, PYR + MES 300 + 90
Description: as §1, §2

Kickxia elatine = experiment: Field trial post-emergence in maize: KICEL
Description: as §1, §2, §3

Galinsoga parviflora = experiment: Field trial post-emergence in maize: GASPA; settings: 31-48 DAA; # = 3; g a.c./ha: PYR 300, MES 100, PYR + MES 300 + 90
Description: as §1, §4

[1] = g a.c./ha: MES 50, PYR + SMO 300 + 800
[2] = g a.c./ha: MES 80, PYR + MES 300 + 50

CS(=O)(=O)c1ccc(C(=O)C2C(=O)CCCC2=O)c([N+](=O)[O-])c1 [MES, 2-(4-methylsulfonyl-2-nitrobenzoyl) cyclohexane-1,3-dione]
herbicidal effect (h.e.) (Poa annua; 7-14 DAA, # = 2): 39% | herbicidal effect (h.e.) (Poa annua; 18-28 DAA, # = 3): 36% | herbicidal effect (h.e.) (Poa annua; 31-48 DAA, # = 2): 27% | MES h.e. (Poa annua; POAAN 14-20 DAA 45 g a.c./ha): 24% | MES h.e. (Poa annua; POAAN 14-20 DAA 90 g a.c./ha): 48% | MES h.e. (Poa annua; POAAN 14-20 DAA 135 g a.c./ha): 58% | MES h.e. (Poa annua; POAAN 24-31 DAA 45 g a.c./ha): 17% | MES h.e. (Poa annua; POAAN 24-31 DAA 90 g a.c./ha): 22% | MES h.e. (Poa annua; POAAN 24-31 DAA 135 g a.c./ha): 38% | herbicidal effect (h.e.) (Veronica persica; 7-14 DAA, # = 4): 91% | herbicidal effect (h.e.) (Veronica persica; 31-48 DAA, # = 5): 93% | MES h.e. (Veronica persica; VERPE 14-20 DAA 45 g a.c./ha): 20% | MES h.e. (Veronica persica; VERPE 14-20 DAA 90 g a.c./ha): 75% | MES h.e. (Veronica persica; VERPE 14-20 DAA 135 g a.c./ha): 70% | MES h.e. (Veronica persica; VERPE 24-31 DAA 45 g a.c./ha): 10% | MES h.e. (Veronica persica; VERPE 24-31 DAA 90 g a.c./ha): 55% | MES h.e. (Veronica persica; VERPE 24-31 DAA 135 g a.c./ha): 60% | herbicidal effect (h.e.) (Digitaria sanguinalis; [1]): 95% | herbicidal effect (h.e.) (Digitaria sanguinalis; [2]): 92% | MES h.e. (Convolvulus arvensis; CONAR 14-20 DAA 45 g a.c./ha): 40% | MES h.e. (Convolvulus arvensis; CONAR 14-20 DAA 90 g a.c./ha): 68% | MES h.e. (Convolvulus arvensis; CONAR 14-20 DAA 135 g a.c./ha): 83% | MES h.e. (Convolvulus arvensis; CONAR 24-31 DAA 135 g a.c./ha): 80% | MES h.e. (Rumex obtusifolius; RUMOB 14-20 DAA 45 g a.c./ha): 87% | MES h.e. (Rumex obtusifolius; RUMOB 14-20 DAA 90 g a.c./ha): 95% | MES h.e. (Rumex obtusifolius; RUMOB 14-20 DAA 135 g a.c./ha): 95% | MES h.e. (Erodium ciconium; EROCC 14-20 DAA 90 g a.c./ha): 32% | MES h.e. (Erodium ciconium; EROCC 14-20 DAA 135 g a.c./ha): 33% | herbicidal effect (h.e.) (Geranium dissectum; [1]): 15% | herbicidal effect (h.e.) (Geranium dissectum; [2]): 15% | herbicidal effect (h.e.) (Solanum nigrum; 18-28 DAA, # = 7): 91% | herbicidal effect (h.e.) (Solanum nigrum; 31-48 DAA, # = 6): 93% | MES h.e. (Solanum nigrum; SOLNI 14-20 DAA 45 g a.c./ha): 95% | herbicidal effect (h.e.) (Matricaria chamomilla; [1]): 25% | herbicidal effect (h.e.) (Matricaria chamomilla; [2]): 53% | MES h.e. (Mercurialis annua; MERAN 14-20 DAA 45 g a.c./ha): 95% | MES h.e. (Mercurialis annua; MERAN 24-31 DAA 45 g a.c./ha): 70% | MES h.e. (Capsella bursa-pastoris): 97% | herbicidal effect (h.e.) (Capsella bursa-pastoris; 7-14 DAA, # = 3, g a.c./ha: PYR 300, MES 100, PYR + MES 300 + 90): 90% | MES h.e. (Capsella bursa-pastoris; CAPBP 14-20 DAA 300 g a.c./ha): 97% | MES h.e. (Capsella bursa-pastoris; CAPBP 14-20 DAA 600 g a.c./ha): 97% | MES h.e. (Capsella bursa-pastoris; CAPBP 24-31 DAA 45 g a.c./ha): 97% | MES h.e. (Atriplex patula; ATXPA 24-31 DAA 90 g a.c./ha): 97% | MES h.e. (Atriplex patula; ATXPA 24-31 DAA 135 g a.c./ha): 97% | herbicidal effect (h.e.) (Datura stramonium): 98% | herbicidal effect (h.e.) (Hibiscus ternatus): 62% | herbicidal effect (h.e.) (Stachys arvensis): 54% | herbicidal effect (h.e.) (Brassica napus; 7-14 DAA): 86% | herbicidal effect (h.e.) (Brassica napus; 18-28 DAA): 85% | herbicidal effect (h.e.) (Brassica napus; 31-48 DAA): 84% | MES h.e. (Kickxia elatine; KICEL 14-20 DAA 45 g a.c./ha): 0% | MES h.e. (Kickxia elatine; KICEL 14-20 DAA 90 g a.c./ha): 8% | MES h.e. (Kickxia elatine; KICEL 14-20 DAA 135 g a.c./ha): 0% | MES h.e. (Kickxia elatine; KICEL 24-31 DAA 45 g a.c./ha): 0% | MES h.e. (Kickxia elatine; KICEL 24-31 DAA 90 g a.c./ha): 0% | MES h.e. (Kickxia elatine; KICEL 24-31 DAA 135 g a.c./ha): 0% | herbicidal effect (h.e.) (Galinsoga parviflora): 97%
